pIC50: −log10 of the molar value.
How the values were obtained:
[1] = test system: male obese ZSF1 rats (diabetic nephropathy model); test: ZSF1 rat 28-week in-feed study: urinary protein (UPCR, 24 h excretion); type: in vivo; settings: for 24 h Urinary Protein Excretion / UPCR (urinary protein/creatinine ratio): obese ZSF1 rats
Method: The effects of Compound A (“A”) on renal function, plasma triglycerides, plasma cholesterol, kidney collagen I, kidney collagen III, renal histology, glomerular filtration rate, fibrosis score, and mRNA gene expression (profibrotic genes and integrin β3) were evaluated in male obese ZSF1 rats (a hybrid F1 of Zucker diabetic fatty rat and spontaneously hypertensive heart failure rat; a diabetic nephropathy model) when administered as in-feed for 28 weeks. Sixty obese male ZSF1 rats were randomized to five groups: Obese control (n=12), Compound A 60 mpk (n=12), Compound A 200 mpk (n=12), Compound A 400 mpk (n=12), Enalapril 10 mpk (n=12); Eight lean male ZSF1 rats were used for normal control. Renal functional changes were monitored by blood and urine analysis following in-feed dosing for 28 weeks. Compound exposure was also monitored during the study.

[2] = target: T1, αvβ3 purified from 293 cells overexpressing αvβ3 (Homo sapiens, UniProt P05106+P06756); test: SPAV3 binding assay (scintillation proximity)
T1 construct: made in house; host or cells: 293 cells overexpressing αvβ3
T1 sequence (P06756 31-889 limits assumed): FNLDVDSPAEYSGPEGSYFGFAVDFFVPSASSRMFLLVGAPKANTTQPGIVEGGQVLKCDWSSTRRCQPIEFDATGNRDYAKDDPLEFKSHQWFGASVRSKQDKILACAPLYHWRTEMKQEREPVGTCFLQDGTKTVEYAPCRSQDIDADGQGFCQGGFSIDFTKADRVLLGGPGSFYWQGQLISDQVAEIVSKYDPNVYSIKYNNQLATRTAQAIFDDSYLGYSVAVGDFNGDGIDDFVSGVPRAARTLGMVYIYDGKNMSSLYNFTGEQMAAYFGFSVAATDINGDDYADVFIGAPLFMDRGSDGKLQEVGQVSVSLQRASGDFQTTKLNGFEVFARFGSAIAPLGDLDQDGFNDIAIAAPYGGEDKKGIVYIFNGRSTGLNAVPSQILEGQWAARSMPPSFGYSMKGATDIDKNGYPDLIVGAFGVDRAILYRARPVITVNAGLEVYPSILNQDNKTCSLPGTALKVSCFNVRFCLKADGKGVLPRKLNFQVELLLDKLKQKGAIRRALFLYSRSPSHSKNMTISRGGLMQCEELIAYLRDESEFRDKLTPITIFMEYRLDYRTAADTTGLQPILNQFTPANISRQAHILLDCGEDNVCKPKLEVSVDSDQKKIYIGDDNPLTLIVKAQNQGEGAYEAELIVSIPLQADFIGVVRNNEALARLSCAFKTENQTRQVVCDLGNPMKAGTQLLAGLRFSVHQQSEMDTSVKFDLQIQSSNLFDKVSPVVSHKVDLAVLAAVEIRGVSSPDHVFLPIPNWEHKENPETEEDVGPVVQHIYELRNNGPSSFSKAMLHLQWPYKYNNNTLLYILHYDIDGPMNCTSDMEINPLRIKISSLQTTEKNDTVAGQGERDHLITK
T1 sequence (P06756 891-1048 partner limits assumed): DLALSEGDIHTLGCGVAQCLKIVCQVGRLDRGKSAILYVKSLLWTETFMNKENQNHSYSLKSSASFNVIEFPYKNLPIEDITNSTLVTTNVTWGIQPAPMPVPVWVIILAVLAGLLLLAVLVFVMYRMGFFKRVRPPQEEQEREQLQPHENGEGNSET
T1 sequence (P05106 27-788): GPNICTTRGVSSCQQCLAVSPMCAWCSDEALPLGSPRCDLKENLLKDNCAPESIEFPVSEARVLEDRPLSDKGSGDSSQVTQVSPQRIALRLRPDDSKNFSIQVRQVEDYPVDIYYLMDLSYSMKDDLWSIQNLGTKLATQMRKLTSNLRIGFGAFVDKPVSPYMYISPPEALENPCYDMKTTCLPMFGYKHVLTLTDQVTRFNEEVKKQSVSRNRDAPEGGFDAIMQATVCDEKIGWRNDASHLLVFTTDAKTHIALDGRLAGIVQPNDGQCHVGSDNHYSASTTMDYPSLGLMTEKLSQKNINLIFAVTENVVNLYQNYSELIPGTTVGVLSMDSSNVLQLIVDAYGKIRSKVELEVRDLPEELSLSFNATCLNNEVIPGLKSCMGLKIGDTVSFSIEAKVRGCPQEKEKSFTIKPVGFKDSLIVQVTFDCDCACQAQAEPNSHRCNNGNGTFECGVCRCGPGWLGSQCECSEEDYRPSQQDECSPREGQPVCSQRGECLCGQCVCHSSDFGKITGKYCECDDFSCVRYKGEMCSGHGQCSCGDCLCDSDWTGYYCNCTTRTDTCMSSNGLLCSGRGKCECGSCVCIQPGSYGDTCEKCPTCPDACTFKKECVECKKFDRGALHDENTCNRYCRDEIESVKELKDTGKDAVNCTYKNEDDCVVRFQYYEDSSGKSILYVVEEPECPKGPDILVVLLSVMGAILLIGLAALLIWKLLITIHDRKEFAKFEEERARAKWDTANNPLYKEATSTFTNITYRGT
Excerpt: • 1. Wheat germ agglutinin Scintillation Proximity Beads (SPA): Amersham • 2. Octylglucopyranoside: Calbiochem • 3. HEPES: Calbiochem • 4. NaCl: Fisher • 5. CaCl2: Fisher • 6. MgCl2: SIGMA • 7. Phenylmethylsulfonylfluoride (PMSF): SIGMA • 8. Optiplate: PACKARD • 9. (S)-3-(4-(2-(6-aminopyridin-2-yl)ethyl)benzamido)-2-((4-(iodo-^125I)phenyl)sulfonamido)propanoic acid as found in WO0046215 (specific activity 500-1000 Ci/mmole) • 10. Test compound • 11. Purified integrin receptor: αvβ3 was purified from 293 cells overexpressing αvβ3 (Duong et al., J. Bone Min. Res., 8:S378, 1993) according to Pytela (Methods in Enzymology, 144:475, 1987) • 12. Binding buffer: 50 mM HEPES, pH 7.8, 100 mM NaCl, 1 mM Ca^2+/Mg^2+, 0.5 mM PMSF • 13. 50 mM octylglucoside in binding buffer: 50-OG buffer
• 1. Pretreatment of SPA beads: • 500 mg of lyophilized SPA beads were first washed four times with 200 ml of 50-OG buffer and once with 100 ml of binding buffer, and then resuspended in 12.5 ml of binding buffer. • 2. Preparation of SPA beads and receptor mixture • In each assay tube, 2.5 μl (40 mg/ml) of pretreated beads were suspended in 97.5 μl of binding buffer and […] of 50-OG buffer. […] (˜30 ng/μ1) of purified receptor was added to the beads in suspension with stirring at room temperature for 30 minutes. The mixture was then centrifuged at 2,500 rpm in a Beckman GPR Benchtop centrifuge for 10 minutes at 4° C. The pellets were then resuspended in 50 μl of binding buffer and 25 μl of 50-OG buffer. • 3. Reaction • The following were sequentially added into Optiplate in corresponding wells: • (i) Receptor/beads mixture (75 μl) • (ii) 25 μl of each of the following: compound to be tested, binding buffer for total binding or A-8 for non-specific binding (final concentration 1 μM) • (iii) (S)-3-(4-(2-(6-aminopyridin-2-yl)ethyl)benzamido)-2-((4-(iodo-^125I)phenyl)sulfonamido)propanoic acid as found in WO0046215 (specific activity 500-1000 Ci/mmole) in binding buffer (25 μl, final concentration 40 pM) • (iv) Binding buffer (125 μl) • (v) Each plate was sealed with plate sealer from PACKARD and incubated overnight with rocking at 4° C. • 4. Plates were counted using PACKARD TOPCOUNT • 5. % inhibition was calculated as follows: • A=total counts • B=nonspecific counts • C=sample counts
% inhibition=[{(A−B)−(C−B)}/(A−B)]/(A−B)×100

COc1ccc([C@H](CC(=O)O)N2CCN(CCCc3ccc4c(n3)NCCC4)C2=O)cn1 [Compound A, 3-{2-Oxo-3-[3-(5,6,7,8-tetrahydro-[1,8]naphthyridin-2-yl)-propyl]imidazolidin-1-yl}-3 (S)-(6-methoxy-pyridin-3-yl)-propionic acid]
effect on urinary protein/creatinine ratio (UPCR) ([1]; 400 mpk, 16-, 21-, 24- and 28-week of treatment): significantly decreased | effect on 24 h urinary protein excretion ([1]; 400 mpk, 16-, 24- and 28-week of treatment): significantly decreased | renal protection: proteinuria and albuminuria ([1]; ZSF-1 rats vs untreated obese ZSF-1 rats (summary)): ameliorating proteinuria and albuminuria | 24 h Urinary Protein Excretion ([1]; 60 mpk in-feed, week 1): 137.2 ± 12.7 mg/24 h | UPCR (urinary protein/creatinine ratio) ([1]; 60 mpk in-feed, week 1): 12.3 ± 1.0 mg/mg | 24 h Urinary Protein Excretion ([1]; 60 mpk in-feed, week 2): 139.6 ± 11.8 mg/24 h | UPCR (urinary protein/creatinine ratio) ([1]; 60 mpk in-feed, week 2): 11.9 ± 1.0 mg/mg | 24 h Urinary Protein Excretion ([1]; 60 mpk in-feed, week 4): 158.4 ± 13.7 mg/24 h | UPCR (urinary protein/creatinine ratio) ([1]; 60 mpk in-feed, week 4): 13.4 ± 1.1 mg/mg | 24 h Urinary Protein Excretion ([1]; 60 mpk in-feed, week 6): 197.9 ± 15.7 mg/24 h | UPCR (urinary protein/creatinine ratio) ([1]; 60 mpk in-feed, week 6): 16.6 ± 1.2 mg/mg | 24 h Urinary Protein Excretion ([1]; 60 mpk in-feed, week 8): 265.7 ± 18.3 mg/24 h | UPCR (urinary protein/creatinine ratio) ([1]; 60 mpk in-feed, week 8): 20.2 ± 1.4 mg/mg | 24 h Urinary Protein Excretion ([1]; 60 mpk in-feed, week 12): 425.3 ± 21.6 mg/24 h | UPCR (urinary protein/creatinine ratio) ([1]; 60 mpk in-feed, week 12): 30.8 ± 1.7 mg/mg | 24 h Urinary Protein Excretion ([1]; 60 mpk in-feed, week 16): 462.2 ± 30.4 mg/24 h | UPCR (urinary protein/creatinine ratio) ([1]; 60 mpk in-feed, week 16): 27.3 ± 1.7 mg/mg | 24 h Urinary Protein Excretion ([1]; 60 mpk in-feed, week 21): 486.2 ± 39.2 mg/24 h | UPCR (urinary protein/creatinine ratio) ([1]; 60 mpk in-feed, week 21): 27.7 ± 2.0+ mg/mg | 24 h Urinary Protein Excretion ([1]; 60 mpk in-feed, week 24): 582.0 ± 43.9 mg/24 h | UPCR (urinary protein/creatinine ratio) ([1]; 60 mpk in-feed, week 24): 34.4 ± 2.3 mg/mg | 24 h Urinary Protein Excretion ([1]; 60 mpk in-feed, week 28): 654.3 ± 48.1 mg/24 h | UPCR (urinary protein/creatinine ratio) ([1]; 60 mpk in-feed, week 28): 37.5 ± 2.8 mg/mg | 24 h Urinary Protein Excretion ([1]; 60 mpk in-feed, week −2): 128.8 ± 11.0 mg/24 h | UPCR (urinary protein/creatinine ratio) ([1]; 60 mpk in-feed, week −2): 10.9 ± 0.9 mg/mg | 24 h Urinary Protein Excretion ([1]; 200 mpk in-feed, week 1): 117.7 ± 9.4 mg/24 h | UPCR (urinary protein/creatinine ratio) ([1]; 200 mpk in-feed, week 1): 10.7 ± 0.8 mg/mg | 24 h Urinary Protein Excretion ([1]; 200 mpk in-feed, week 2): 124.9 ± 10.9 mg/24 h | UPCR (urinary protein/creatinine ratio) ([1]; 200 mpk in-feed, week 2): 10.9 ± 1.0 mg/mg | 24 h Urinary Protein Excretion ([1]; 200 mpk in-feed, week 4): 140.0 ± 12.4 mg/24 h | UPCR (urinary protein/creatinine ratio) ([1]; 200 mpk in-feed, week 4): 12.1 ± 1.1 mg/mg | 24 h Urinary Protein Excretion ([1]; 200 mpk in-feed, week 6): 167.1 ± 15.0 mg/24 h | UPCR (urinary protein/creatinine ratio) ([1]; 200 mpk in-feed, week 6): 14.1 ± 1.2 mg/mg | 24 h Urinary Protein Excretion ([1]; 200 mpk in-feed, week 8): 233.9 ± 18.7 mg/24 h | UPCR (urinary protein/creatinine ratio) ([1]; 200 mpk in-feed, week 8): 18.0 ± 1.5 mg/mg | 24 h Urinary Protein Excretion ([1]; 200 mpk in-feed, week 12): 400.5 ± 20.5 mg/24 h | UPCR (urinary protein/creatinine ratio) ([1]; 200 mpk in-feed, week 12): 28.7 ± 1.6 mg/mg | 24 h Urinary Protein Excretion ([1]; 200 mpk in-feed, week 16): 452.2 ± 27.6 mg/24 h | UPCR (urinary protein/creatinine ratio) ([1]; 200 mpk in-feed, week 16): 26.3 ± 1.5 mg/mg | 24 h Urinary Protein Excretion ([1]; 200 mpk in-feed, week 21): 489.0 ± 28.6 mg/24 h | UPCR (urinary protein/creatinine ratio) ([1]; 200 mpk in-feed, week 21): 28.1 ± 1.6+ mg/mg | 24 h Urinary Protein Excretion ([1]; 200 mpk in-feed, week 24): 541.6 ± 32.3 mg/24 h | UPCR (urinary protein/creatinine ratio) ([1]; 200 mpk in-feed, week 24): 32.0 ± 1.9 mg/mg | 24 h Urinary Protein Excretion ([1]; 200 mpk in-feed, week 28): 646.2 ± 44.6 mg/24 h | UPCR (urinary protein/creatinine ratio) ([1]; 200 mpk in-feed, week 28): 36.5 ± 2.3 mg/mg | 24 h Urinary Protein Excretion ([1]; 200 mpk in-feed, week −2): 122.3 ± 9.5 mg/24 h | UPCR (urinary protein/creatinine ratio) ([1]; 200 mpk in-feed, week −2): 10.7 ± 0.9 mg/mg | 24 h Urinary Protein Excretion ([1]; 400 mpk in-feed, week 1): 138.5 ± 11.3 mg/24 h | UPCR (urinary protein/creatinine ratio) ([1]; 400 mpk in-feed, week 1): 12.3 ± 0.9 mg/mg | 24 h Urinary Protein Excretion ([1]; 400 mpk in-feed, week 2): 148.8 ± 12.3 mg/24 h | UPCR (urinary protein/creatinine ratio) ([1]; 400 mpk in-feed, week 2): 12.5 ± 0.9 mg/mg | 24 h Urinary Protein Excretion ([1]; 400 mpk in-feed, week 4): 148.0 ± 8.3 mg/24 h | UPCR (urinary protein/creatinine ratio) ([1]; 400 mpk in-feed, week 4): 12.7 ± 0.6 mg/mg | 24 h Urinary Protein Excretion ([1]; 400 mpk in-feed, week 6): 162.6 ± 11.7 mg/24 h | UPCR (urinary protein/creatinine ratio) ([1]; 400 mpk in-feed, week 6): 13.8 ± 0.9 mg/mg | 24 h Urinary Protein Excretion ([1]; 400 mpk in-feed, week 8): 224.8 ± 16.3 mg/24 h | UPCR (urinary protein/creatinine ratio) ([1]; 400 mpk in-feed, week 8): 17.8 ± 1.2 mg/mg | 24 h Urinary Protein Excretion ([1]; 400 mpk in-feed, week 12): 358.4 ± 19.9 mg/24 h | UPCR (urinary protein/creatinine ratio) ([1]; 400 mpk in-feed, week 12): 26.9 ± 1.5 mg/mg | 24 h Urinary Protein Excretion ([1]; 400 mpk in-feed, week 16): 360.5 ± 19.7++ mg/24 h | UPCR (urinary protein/creatinine ratio) ([1]; 400 mpk in-feed, week 16): 20.9 ± 1.0++ mg/mg | 24 h Urinary Protein Excretion ([1]; 400 mpk in-feed, week 21): 448.1 ± 19.6 mg/24 h | UPCR (urinary protein/creatinine ratio) ([1]; 400 mpk in-feed, week 21): 26.0 ± 1.3++ mg/mg | 24 h Urinary Protein Excretion ([1]; 400 mpk in-feed, week 24): 483.8 ± 27.1++ mg/24 h | UPCR (urinary protein/creatinine ratio) ([1]; 400 mpk in-feed, week 24): 28.1 ± 1.7++ mg/mg | 24 h Urinary Protein Excretion ([1]; 400 mpk in-feed, week 28): 554.9 ± 28.3++ mg/24 h | UPCR (urinary protein/creatinine ratio) ([1]; 400 mpk in-feed, week 28): 31.2 ± 1.7++ mg/mg | 24 h Urinary Protein Excretion ([1]; 400 mpk in-feed, week −2): 127.0 ± 11.0 mg/24 h | UPCR (urinary protein/creatinine ratio) ([1]; 400 mpk in-feed, week −2): 10.8 ± 0.9 mg/mg | pIC50 [2]: 10.00

From patent US20180110762A1, “Compositions Methods for Treating Chronic Kidney Disease” (Merck Sharp & Dohme Corp, priority 2015, published 2018)
